From patent US5935805A, “Measurement of bilirubin albumin binding” (Research Corporation Technologies, Inc., priority 1997, dated 1999)
Several values for one entry are separate records, joined by “and”; a condition that tells them apart may be missing. Identical values can stand only once. Like-named read-outs stand apart in the source and are kept apart here.

Tests used:
albumin [1] = target: T1, albumin (Homo sapiens, UniProt P02768); assay: Oxidation of bilirubin-14C/defatted albumin by peroxidase and peroxide, Sephadex G25 column radioactivity; assay type: biochemical; conditions: for Bilirubin: 50 μg/mL peroxidase, 1000 μmol/L ethyl hydrogen peroxide; for Eluate counts/min: albumin fraction from Sephadex G25; for Bilirubin (% time 0): 278 µM
Method: A bilirubin-^14 C/defatted albumin solution (molar ratio 0.42) containing 278 μmol/L bilirubin and 60,839 counts per minute, 50 μg/mL peroxidase, and 1000 μmol/L ethyl hydrogen peroxide were allowed to react for 8 minutes. At various times (0 to 8 minutes), 100 μl of reaction mix was removed and added to 10 μl of 100 mmol/L Na2 S to stop the reaction. The bilirubin concentration was calculated from the absorption at 460 nm after dilution to 1.0 ml with 0.055M Somensen's buffer, and the entire diluted reaction mixture was then placed on a Sephadex G25 0.5×5 cm (diameter×length) column prepared according to the manufacturer's instructions. The albumin fraction was then eluted with buffer. The bilirubin remaining and the radioactivity of the eluate were measured at each time interval to determine whether the oxidation products remained bound to albumin during the reaction and therefore passed through the Sephadex column with the albumin.

albumin [2] = target: T1, albumin; conditions: lowest established value; cited from earlier work
albumin [3] = target: T1, albumin; assay: Bilirubin-albumin binding isotherm in minimally diluted newborn plasma titrated with bilirubin; design: Plasma from a partial exchange transfusion performed in a term newborn with polycythemia; from tissue; host or cells: plasma of a term newborn (partial exchange transfusion); conditions: dilution 1:1.8, two-site model, non-linear regression
Description: Plasma from a partial exchange transfusion performed in a term newborn with polycythemia was titrated with bilirubin and the unconjugated unbound bilirubin determined by the present method to assess the bilirubin-albuminbinding isotherm in minimally diluted plasma. Non-linear regression used to determine the equilibrium binding constants, and a two-site model with interaction between sites best fit the binding isotherm.

albumin [4] = target: T1, albumin; assay: Unbound bilirubin in bilirubin-defatted albumin solution with sulfisoxazole, Jacobsen and Wennberg method at 1:41.8 dilution; assay type: binding; conditions: 15 mg/dL sulfisoxazole; bilirubin 20 mg/dL, defatted albumin 3.0 g/dL; dilution 1:41.8; mean and SD of 3 replicates
Method: (§1) A 0.1 cm path cuvette was employed to allow direct spectral analysis of the unbound bilirubin at the 1:1.8 dilution.
The Jacobsen and Wennberg method was performed as above using a 1 cm path cuvette. The […] technique was performed by stopping the reaction after five minutes with 1.0 ml of diazo-A and then adding 1.0 ml of 90% methanol.

albumin [5] = target: T1, albumin; assay: Unbound bilirubin in bilirubin-defatted albumin solution with sulfisoxazole, peroxidase method of the instant invention at 1:1.8 dilution; assay type: binding; conditions: 15 mg/dL sulfisoxazole; bilirubin 20 mg/dL, defatted albumin 3.0 g/dL; dilution 1:1.8; mean and SD of 3 replicates
Description: as §1

newborns = conditions: displaces bilirubin from albumin, blood level 15 mg/dL reported; cited from earlier work
horseradish peroxidase = assay: Standardization of catalyzing reagent: peroxidase catalyzed oxidation of bilirubin by peroxide in the absence of albumin; assay type: biochemical; conditions: about 21° C.
Method: This is done by determining the Kp, i.e., the first order rate constant for the oxidation of bilirubin by the oxidizing reagent (usually peroxide) in the presence of the catalyzing reagent. The Kp is determined by standard techniques known in the art, utilizing known concentrations of unbound unconjugated bilirubin. […] If B is the unconjugated unoxidized bilirubin concentration at time t, P is the concentration of the catalyzing reagent e.g., peroxidase, Bo, and Bt are the initial unconjugated bilirubin concentration and the unconjugated bilirubin concentration at time t, respectively, and the concentration of the oxidizing reagent e.g., peroxide is not rate limiting, then at concentrations of bilirubin that are well below the Km for peroxidase catalyzed peroxide oxidation of bilirubin, (for HRP, this value is .congruent.70 uMol at 37° C.), then
dB/dt=-Kp ·P·B EQ.3
Integrating Equation 3 between the limits t=o and t=t, wherein t is the predetermined time referred to hereinabove provides [formula] Thus, in accordance with EQ.4, the value of Kp is determined if a known concentration of peroxidase is reacted with an excess amount of peroxide with a known amount of unbound unconjugated bilirubin.

T1 sequence (P02768 25-609): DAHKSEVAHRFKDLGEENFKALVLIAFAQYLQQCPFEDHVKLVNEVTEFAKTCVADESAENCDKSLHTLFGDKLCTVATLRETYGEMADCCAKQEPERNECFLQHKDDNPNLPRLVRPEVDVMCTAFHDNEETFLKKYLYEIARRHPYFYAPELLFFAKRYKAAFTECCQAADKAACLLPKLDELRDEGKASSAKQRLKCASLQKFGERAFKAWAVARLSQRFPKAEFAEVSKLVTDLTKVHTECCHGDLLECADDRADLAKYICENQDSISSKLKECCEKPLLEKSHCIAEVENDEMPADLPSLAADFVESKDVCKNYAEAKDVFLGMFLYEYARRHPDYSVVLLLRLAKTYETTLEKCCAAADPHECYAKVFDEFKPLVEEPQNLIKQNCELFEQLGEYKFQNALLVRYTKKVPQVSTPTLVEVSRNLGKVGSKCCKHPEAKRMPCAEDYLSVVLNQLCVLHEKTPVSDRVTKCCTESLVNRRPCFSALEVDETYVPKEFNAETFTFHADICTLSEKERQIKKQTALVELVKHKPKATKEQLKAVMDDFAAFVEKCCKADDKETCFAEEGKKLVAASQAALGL

C=CC1=C(C)/C(=C/c2[nH]c(Cc3[nH]c(/C=C4\NC(=O)C(C)=C4C=C)c(C)c3CCC(=O)O)c(CCC(=O)O)c2C)NC1=O [bilirubin, bilirubin IXa]
Eluate counts/min (% time 0) (albumin [1]; reaction time 0 min): 100 % time 0
Bilirubin (albumin [1]; reaction time 0 min): 4.86 µmol/L and 4.93 µmol/L
Eluate counts/min (albumin [1]; reaction time 0 min): 57,675 counts/min and 57,692 counts/min
Eluate counts/min (% time 0) (albumin [1]; reaction time 4 min): 97 % time 0 and 92 % time 0
Bilirubin (albumin [1]; reaction time 4 min): 3.07 µmol/L and 3.36 µmol/L
Bilirubin (% time 0) (albumin [1]; reaction time 4 min, 4 min): 63 % time 0 and 68 % time 0
Eluate counts/min (albumin [1]; reaction time 4 min): 55,797 counts/min and 53,070 counts/min
Eluate counts/min (% time 0) (albumin [1]; reaction time 6 min): 87 % time 0 and 82 % time 0
Bilirubin (albumin [1]; reaction time 6 min): 2.70 µmol/L and 2.60 µmol/L
Bilirubin (% time 0) (albumin [1]; reaction time 6 min, 6 min): 55 % time 0 and 53 % time 0
Eluate counts/min (albumin [1]; reaction time 6 min): 50,119 counts/min and 47,500 counts/min
Eluate counts/min (% time 0) (albumin [1]; reaction time 8 min): 87 % time 0 and 86 % time 0
Bilirubin (albumin [1]; reaction time 8 min): 2.14 µmol/L and 2.24 µmol/L
Eluate counts/min (albumin [1]; reaction time 8 min): 50,174 counts/min and 49,405 counts/min
First order dissociation rate constant k-1 of the bilirubin-albumin complex, lowest value (albumin [2]): about 0.4 /min
Kd (albumin [3]; read-out: Equilibrium dissociation constant, 1:1 bilirubin/albumin species): 59 nM
Kd (albumin [3]; read-out: Equilibrium dissociation constant, 2:1 bilirubin/albumin species): 30.3 nM

Cc1noc(NS(=O)(=O)c2ccc(N)cc2)c1C [sulfisoxazole]
CONCENTRATION OF UNBOUND BILIRUBIN + Sulfa (albumin [4]): 0.092 ± .003 μm
CONCENTRATION OF UNBOUND BILIRUBIN + Sulfa (albumin [5]): 0.285 ± 0.03 μm
Bilirubin toxicity when given to newborns (newborns): development of bilirubin toxicity

horseradish peroxidase
Kp, first order rate constant for catalyzed oxidation of bilirubin (horseradish peroxidase): about eight
